Measurements as given in US7605179B2, “Napthoquinone derivatives as inhibitors of tau aggregation for the treatment of alzheimer's and related neurodegenerative disorders” (Wista Laboratories Ltd., priority 2001, dated 2009).

Experiments:
fibroblast cells (3T6) = test: Toxicity in the T40/12 kD cell assay (lactate dehydrogenase kit); format: cell-based; settings: for LD50: cellular LD50, cell numbers after 24 hrs exposure; for Rxindx: therapeutic index, RxIndx=LD50/B50
Procedure: Toxicity of the compounds described above was assessed in the T40/12 kD cell assay used to assess activity. Toxicity was measured by cell numbers after 24 hrs exposure to the compound using a lactate dehydrogenase assay kit TOX-7(Sigma Biosciences) according to the manufacturer's instructions after lysis of remaining cells. Alternatively a kit from Promega UK (CytoTox 96) was used, again according to the manufacturer's instructions.

tau-tau binding [1] = target: tau-tau binding (Homo sapiens, UniProt P10636); test: Cell-based assay I ('T40/12 kD'), production of the 12 kD fragment; settings: for activity as inhibitor of tau-tau aggregation: T40/12 kD cell assay; for Ki: apparent KI calculated from T40/12 kD cell data, assumes intracellular tau 500 nM, tau-tau Kd 22 nM; for IC50: concentration at which production of the 12 kD band from full-length tau is reduced to 50%, read-out: B50
Procedure: Production of the 12 kD fragment can be blocked in a dose-dependent manner by tau-aggregation inhibitors. Indeed the quantitation of inhibitory activity of compounds with respect to proteolytic generation of the 12 kD fragment within cells can be described entirely in terms of the same parameters which describe inhibition of tau-tau binding in vitro. That is, extent of proteolytic generation of the 12 kD fragment within cells is determined entirely by the extent to tau-tau binding through the repeat domain. The availability of the relevant proteases within the cell is non-limiting.
The process is described in more detail in prior filed unpublished application GB 0101049.5.
The observed cell data for production of the 12 kD band can be fitted closely (i.e. observed vs. predicted correlation coefficient >0.9), to a standard function describing inhibition of tau-tau binding in vitro. To obtain this fit, two assumptions need to be made, which are consistent with results from other cell-based and in vitro studies: • 1) the intracellular concentration of tau is approximately 500 nM; • 2) the tau-tau binding affinity is 22 nM.
When these assumptions are made, the function: Activity=[tau]([tau]+Kd*(1+[inhibitor]/KI)) can be solved by standard numerical methods to derive a value for apparent KI. Comparison with values observed for tau-tau binding in vitro at a tau concentration of 500 nM, where the Kd value for tau-tau binding is known to be 22 nM confirm that the sole determinant of production of the proteolytically stable core tau unit of the PHF within the cell is simply the extent of tau-tau binding.
A further parameter, B50, has been established in respect of compounds exemplified herein. The B50 value is the determined concentration of test compound used in the cell assay at which relative production of the 12 kD band from full-length tau was reduced to 50% of that observed in the absence of the compound. This provides an indication of the tissue concentration which would be required to achieve the corresponding activity in vivo. In general there is an approximately linear relationship between apparent KI value and B50 value, which can be used to derive the KI value: B50(μM)=0.0217×KI(nM) Cell-based Assay II(‘ssK40/25 kD’)

cultured CNS neurones = settings: cited from earlier work
tau-tau binding [2] = settings: WO 96/30766 FIGS. 23 and 24; 1 represents binding equivalent to that in the absence of compound; cited from earlier work
tau-tau binding [3] = test: In vitro tau-tau binding assay (WO 96/30766)
Procedure: FIG. 5 is a schematic representation of the in vitro aggregation assay of WO 96/30766 in which binding of two truncated units is measured. The species terminating at […] (“a”) is first coated on the ELISA plate (in sodium carbonate buffer: 50 mM, pH 9.6). Next, a second truncated tau species terminating at […] (“e”) is incubated in various buffer conditions. […] This is described in detail in WO 96/30766. Briefly, a fragment of tau corresponding to the core repeat domain, which has been adsorbed to a solid phase substrate, is able to capture soluble full-length tau and bind tau with high affinity. This association confers stability against proteolytic digestion of the aggregated tau molecules. The process is self-propagating, and can be blocked selectively by prototype pharmaceutical agents ([…]., et al. (1996), loc. cit). The assay is shown schematically in FIG. 5.

tau protein = settings: 200 μM; cited from earlier work
tau-tau aggregation = target: T1, tau-tau aggregation (Homo sapiens, UniProt P10636); test: Cell-based assay II ('ssK40/25 kD'), proteolytic processing of tau; settings: concentrations of 1-2 μM
T1 construct: membrane-targeted tau (sstau190-441, “ssK40”); expressed in transfected cells
Description: The process is described in more detail in prior filed unpublished application GB 0100119.7. […] These cleavage sites correspond to the known boundaries of the PHF-core domain, indicate that their generation within the cell depends on PHF-like tau aggregation through an antiparallel phase-shifted alignment of the repeat domain.
This is shown schematically in FIG. 7. When expression of full-length tau (T40) is activated under control of an inducible promoter in cells which constitutively express the membrane-targeted ssK40 fragment, T40 is processed proteolytically to give rise to a K40 fragment (N-terminal truncation at ˜αα 185), a K30 fragment (C-terminal truncation ˜αα 390) and a K25 fragment (N-terminal truncation at ˜αα 295).

tau-tubulin binding = tau-tubulin binding (Homo sapiens, UniProt P10636); test: In vitro tau-tubulin binding; settings: at concentrations up to 500 μM (2500:1 molar ratio with respect to tau)
tau-tubulin binding, sequence (P10636 whole entry): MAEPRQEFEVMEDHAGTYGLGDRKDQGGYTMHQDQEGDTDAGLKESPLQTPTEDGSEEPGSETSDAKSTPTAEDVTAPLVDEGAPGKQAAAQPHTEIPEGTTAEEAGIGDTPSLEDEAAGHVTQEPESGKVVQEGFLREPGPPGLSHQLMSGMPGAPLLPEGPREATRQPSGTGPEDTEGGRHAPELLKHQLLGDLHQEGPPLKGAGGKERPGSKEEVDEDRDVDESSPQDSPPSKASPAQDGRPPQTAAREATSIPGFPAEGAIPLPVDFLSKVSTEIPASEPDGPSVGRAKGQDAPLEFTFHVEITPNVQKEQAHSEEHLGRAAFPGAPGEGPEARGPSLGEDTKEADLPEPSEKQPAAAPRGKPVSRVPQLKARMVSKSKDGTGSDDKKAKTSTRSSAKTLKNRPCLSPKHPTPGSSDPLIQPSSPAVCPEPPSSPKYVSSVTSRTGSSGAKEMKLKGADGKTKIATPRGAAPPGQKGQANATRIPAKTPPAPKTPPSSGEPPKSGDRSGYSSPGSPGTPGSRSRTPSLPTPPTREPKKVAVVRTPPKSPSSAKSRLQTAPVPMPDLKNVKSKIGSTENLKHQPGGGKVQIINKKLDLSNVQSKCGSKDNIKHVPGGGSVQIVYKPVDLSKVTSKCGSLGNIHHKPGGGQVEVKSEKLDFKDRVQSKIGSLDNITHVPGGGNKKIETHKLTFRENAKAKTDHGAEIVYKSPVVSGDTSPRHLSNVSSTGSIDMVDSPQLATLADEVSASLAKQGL

tau-tau binding (Homo sapiens, UniProt P10636), sequence (P10636 1-441 isoform P10636-8): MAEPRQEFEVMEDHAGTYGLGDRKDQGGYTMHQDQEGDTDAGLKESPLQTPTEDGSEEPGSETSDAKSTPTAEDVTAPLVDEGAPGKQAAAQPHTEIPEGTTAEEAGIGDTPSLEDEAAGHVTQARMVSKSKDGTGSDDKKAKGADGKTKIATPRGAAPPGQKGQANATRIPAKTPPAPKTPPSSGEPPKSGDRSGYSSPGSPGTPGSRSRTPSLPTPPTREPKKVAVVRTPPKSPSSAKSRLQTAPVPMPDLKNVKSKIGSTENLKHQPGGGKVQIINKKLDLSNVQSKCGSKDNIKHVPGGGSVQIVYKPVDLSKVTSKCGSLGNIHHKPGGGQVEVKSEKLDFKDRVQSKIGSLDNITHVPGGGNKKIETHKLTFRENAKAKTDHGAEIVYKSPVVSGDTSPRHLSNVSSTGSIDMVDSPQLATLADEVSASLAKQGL
T1 sequence (P10636 507-758): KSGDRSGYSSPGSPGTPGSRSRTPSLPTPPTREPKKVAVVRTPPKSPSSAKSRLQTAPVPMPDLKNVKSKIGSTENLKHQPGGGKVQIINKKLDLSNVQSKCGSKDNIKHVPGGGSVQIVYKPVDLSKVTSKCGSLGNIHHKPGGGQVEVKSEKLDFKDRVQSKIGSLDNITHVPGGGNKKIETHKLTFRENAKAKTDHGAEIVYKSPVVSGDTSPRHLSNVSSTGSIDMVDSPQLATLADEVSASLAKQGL

| Compound | LD50 (fibroblast cells (3T6)) | Rxindx (fibroblast cells (3T6)) | activity as inhibitor of tau-tau aggregation (tau-tau binding [1]) | Ki (tau-tau binding [1]) | IC50 (tau-tau binding [1]) | further results |
| --- | --- | --- | --- | --- | --- | --- |
| CC(C)=CCC1=C(O)C(=O)c2ccccc2C1=O [DH1] | 100.97 µM | 9.07 | weak activity | 513 nM | 11100 nM |  |
| Cc1cc(OS(=O)(=O)O)c2ccccc2c1OS(=O)(=O)O [DH13] | 30.90 µM | 5.41 | intermediate in activity | 263 nM | 5710 nM |  |
| CC1=C(C/C=C(\C)CCC[C@H](C)CCC[C@H](C)CCCC(C)C)C(=O)c2ccccc2C1=O [Compound K1, 2-methyl-3-phytyl-1,4-naphthoquinone] |  |  |  |  |  | survival promoting effects (cultured CNS neurones; in the range 10 nM—1 μM): prominent survival promoting effects |
| O=C(O)c1cc(O)c2ccccc2c1O [DH5] | 34.29 µM | 13.39 | had activity | 118 nM | 2560 nM |  |
| CC1=C(C)C(=O)c2ccccc2C1=O [DH10, 2,3-dimethyl-1,4-naphthoquinone] | 66.71 µM | 13.91 |  | 221 nM | 4800 nM |  |
| CC1=CC(=O)c2ccccc2C1=O [Compound K3, 2-methyl-1,4-naphthoquinone] | 44.92 µM | 16.17 |  | 128 nM | 2780 nM | ranking value of inhibitory properties (tau-tau binding [2]): 1.042; activity in the in vitro assay (tau-tau binding [3]): did not show activity; survival promoting activity relative to vitamins K1 and K2 (cultured CNS neurones; only at 1 μM): ~10%; effect on tau protein phosphorylation (tau protein): prominent dephosphorylation of tau protein; conversion K40→K25 relative to that seen without K3 (tau-tau aggregation): about ½; conversion of T40→K25 relative to that seen without K3 (tau-tau aggregation): about ¼; conversion of T40→K40 relative to that seen without K3 (tau-tau aggregation; inferred): about ½ |
| menaquinone [Compound K2] |  |  |  |  |  | ranking value of inhibitory properties (tau-tau binding [2]): 0.674; Ki (tau-tau binding [3]; for values less than 100 μM, read-out: apparent KI value in vitro): 942 nM; inhibition of tau-tubulin binding in vitro (tau-tubulin binding): does not inhibit |
| CC(=O)Oc1cc(C)c(OC(C)=O)c2ccccc12 [DH9] | 13.09 µM | 4.75 | highly active | 127 nM | 2760 nM |  |
| CC(=O)Oc1c(C)c(C)c(OC(C)=O)c2ccccc12 [DH11] | 12.13 µM | 0.83 | reduced activity | 674 nM | 14600 nM |  |
